“Also recorded” adds a separate entry of the source.
Assays:
[1] = tested on: MDA-MB-231 human breast cancer cells; assay: Boyden chamber assay (CytoSelect 96-well cell migration); format: cell-based; conditions: 100 nM, 37 °C, n = 3; for Anti-migration activity, P152 vs scrambled peptides: t-test, comparison with scrambled P152-1 and P152-2 (Figure 5); for Migration of MDA-MB-231 cells vs non-treatment: 24 h (1 h pre-incubation), 5% CO2, CyQuant GR fluorescence, t-test p < 0.05
Procedure: A Boyden chamber assay was performed using the CytoSelect™ 96-well cell migration assay kit (8 µm, Fluorometric Format, Cat. No. CBA-106; Cell Biolabs, Inc., San Diego, CA, USA). Human breast cancer MDA-MB-231 cells (HTB-26TM; American Type Culture Collection, Manassas, VA, USA) were suspended in serum-free D-MEM medium (1.85 × 10^5 cells/mL) containing 100 nM CD81-BP, AAAA or CD81 antibody (5A6) at 37 °C and 5% CO2 for 1 h. Then, within the Boyden chamber, 100 µL of the serum-free cell suspension was added to the upper chamber, while 150 µL of 10% FBS-containing medium was placed in the lower chamber. After incubation at 37 °C and 5% CO2 for 24 h, the cells that migrated to the lower chamber were detached from the membrane by cell detachment buffer, lysed by lysis buffer, and stained with CyQuant® GR dye. The fluorescence intensity of the cell lysate was analyzed at 480/520 nm by a microplate reader (Biomedical Solutions, Inc., Stafford, TX, USA).
The experiment was performed with at least three replicates. The t-test was performed using Prism 9 (GraphPad Software, Inc., La Jolla, CA, USA) or Microsoft Excel (Microsoft, WA, USA) to analyze the statistical significance difference. The statistical significance was set at p-value < 0.05.

[2] = tested on: Recombinant CD81 human protein (LEL Phe113-Lys201); assay: Binding assay between EWI-2 peptide array and Alexa Fluor 488-labeled CD81 (screening); conditions: 500 nM labeled CD81, room temperature, 3 h, 3% BSA block; blank-subtracted; fluorescence scan; n = 3
Procedure: The peptide array was prepared similarly to the method described in previous reports. A peptide library of eight-residue peptides was obtained by overlapping four residues from Ig3 to the C-terminus of human EWI-2 (accession number: Q969P0) (Table S1). Next, the EWI-2 peptide array was synthesized on a Fmoc-β-Alanine-activated cellulose membrane using Fmoc-based chemistry. The synthesis cycle was initiated by deprotecting the N-terminal Fmoc group with 20% piperidine in DMF and then washing it with DMF and EtOH, respectively. […]
The Alexa Fluor™ 488 protein labeling kit (Thermo Fisher Scientific, Waltham, MA, USA) was applied to fluorescently label the CD81 protein. […] The concentration of the labeled CD81 protein solution was finally quantified using a Bradford protein assay kit (Takara Bio Inc., Shiga, Japan).
First, to reduce nonspecific interactions, the peptide array was blocked by 3% BSA in Tris–HCl buffer at room temperature for 15 min, followed by membrane washing with Tris–HCl buffer. […] Finally, the membrane was fluorescence-scanned and imaged by a biomolecular imager (Typhoon FLA 9500; GE Healthcare, Hatfield, UK), before the spot intensity of each peptide was measured using GE Healthcare’s ImageQuant TL 8.1 software.

[3] = target: T1, Recombinant CD81 human protein, large extracellular loop (LEL, Phe113-Lys201), Alexa Fluor 488-labeled (human, UniProt P60033 113-201, Alexa Fluor 488 dye (succinimidyl ester labeling)); assay: peptide or protein array; candidate peptides and control AAAA on cellulose membrane, blocked with 3% BSA; Alexa488-labeled CD81 at 50 nM to 1 µM, room temperature, 3 h; AAAA-subtracted spot intensity fitted to the Hill equation; estimated KD; conditions: both partners purified
T1 construct: two additional amino acids (Gly and Pro) at the N-terminus of the LEL; CD81, human, large extracellular loop (LEL), Phe113-Lys201; also called CD81 protein; CD81 LEL; source: bought: Sino Biological (Cat. No. 14244-HNCH); labeled with the Alexa Fluor 488 protein labeling kit
T1 sequence: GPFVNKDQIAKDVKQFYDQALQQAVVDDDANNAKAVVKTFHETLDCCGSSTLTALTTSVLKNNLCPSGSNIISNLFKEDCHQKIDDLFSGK

KKRCRFLM [Peptide P152-2, scrambled peptide of P152 (KKRCRFLM)]
Anti-migration activity, P152 vs scrambled peptides ([1]; 24 h): only P152 origin showed statistical significance (p-value < 0.05)

FMKRLRKR [Peptide P153, EWI-2-derived CD81-BP candidate, FMKRLRKR]
Migration of MDA-MB-231 cells vs non-treatment [1]: could significantly reduce the migration of MDA-MB-231 cells | Inhibition of migration compared with anti-human CD81 antibody 5A6 ([1]; 24 h): comparable or competitive to an anti-CD81 monoclonal human antibody (5A6) | Spot fluorescence intensity on array (candidate selection) [2]: greater than the average (AVG) and two standard deviations (SD)

ASRTYRLR [Peptide P97]
Migration of MDA-MB-231 cells vs non-treatment [1]: no distinct inhibition was observed | Spot fluorescence intensity on array (candidate selection) [2]: greater than the average (AVG) and two standard deviations (SD)

FRKCKMRL [Peptide P152-1, scrambled peptide of P152 (FRKCKMRL)]
Anti-migration activity, P152 vs scrambled peptides ([1]; 24 h): showed the impact on MDA-MB-23 cell migration as seemingly as the original P152; also recorded: only P152 origin showed statistical significance (p-value < 0.05)

B1: P132 (RSHRLRLH), EWI-2-derived eight-residue peptide (peptide)
peptide: RSHRLRLH
modifications: synthesized on a Fmoc-β-Alanine-activated cellulose membrane
notes: eight-residue stretch of human EWI-2 (immunoglobulin superfamily member 8), between the Ig3 domain and the C-terminus; also called CD81-BP candidate; source: synthetic peptide, spot-synthesized on cellulose membrane (peptide array)
Kd [3]: 1630 nM

B2: P97 (ASRTYRLR), EWI-2-derived eight-residue peptide (peptide)
peptide: ASRTYRLR
modifications: synthesized on a Fmoc-β-Alanine-activated cellulose membrane
notes: eight-residue stretch of human EWI-2 (immunoglobulin superfamily member 8), between the Ig3 domain and the C-terminus; For the migration assay the peptide was made as a free powder on Rink amide resin; also called CD81-BP candidate; source: synthetic peptide, spot-synthesized on cellulose membrane (peptide array)
Kd [3]: 1060 nM

B3: P152 (CFMKRLRK), EWI-2-derived eight-residue peptide (peptide)
peptide: CFMKRLRK
modifications: synthesized on a Fmoc-β-Alanine-activated cellulose membrane
notes: eight-residue stretch of human EWI-2 (immunoglobulin superfamily member 8), near the C-terminus; For the migration assay the peptide was made as a free powder on Rink amide resin; also called CD81-BP candidate; source: synthetic peptide, spot-synthesized on cellulose membrane (peptide array)
Kd [3]: 910 nM

B4: P153 (FMKRLRKR), EWI-2-derived eight-residue peptide (peptide)
peptide: FMKRLRKR
modifications: synthesized on a Fmoc-β-Alanine-activated cellulose membrane
notes: last eight residues of human EWI-2 (immunoglobulin superfamily member 8); also called CD81-BP candidate; source: synthetic peptide, spot-synthesized on cellulose membrane (peptide array)
Kd [3]: 12600 nM

From publication PMC10046862, “Screening of EWI-2-Derived Peptides for Targeting Tetraspanin CD81 and Their Effect on Cancer Cell Migration” (Biomolecules, 2023)
